In patent publication US20110003849A1, “SOLUBLE EPOXIDE HYDROLASE INHIBITORS, COMPOSITIONS CONTAINING SUCH COMPOUNDS AND METHODS OF TREATMENT” (priority 2008, published 2011):

Molecular target: T1, human sEH enzyme (Homo sapiens, UniProt P34913)
T1 construct: His-tag (N, cleaved yes); made in house; host or cells: E. coli (pET100 vector)
T1 sequence (P34913 1-555): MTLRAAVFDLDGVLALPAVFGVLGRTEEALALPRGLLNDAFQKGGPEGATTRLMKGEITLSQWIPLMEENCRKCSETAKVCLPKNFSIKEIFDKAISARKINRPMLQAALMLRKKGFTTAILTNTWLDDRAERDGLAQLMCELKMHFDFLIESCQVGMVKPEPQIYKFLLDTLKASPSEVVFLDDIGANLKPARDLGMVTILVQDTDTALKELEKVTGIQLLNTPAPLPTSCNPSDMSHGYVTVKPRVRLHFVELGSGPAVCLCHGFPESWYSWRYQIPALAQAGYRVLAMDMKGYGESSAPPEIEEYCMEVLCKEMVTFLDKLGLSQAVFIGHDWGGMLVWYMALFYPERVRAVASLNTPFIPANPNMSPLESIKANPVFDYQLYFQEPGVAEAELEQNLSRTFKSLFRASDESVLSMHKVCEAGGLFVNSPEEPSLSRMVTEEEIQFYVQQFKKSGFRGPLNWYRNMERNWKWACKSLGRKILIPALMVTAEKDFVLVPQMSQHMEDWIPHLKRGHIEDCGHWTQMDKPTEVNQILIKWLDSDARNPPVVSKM
Assay: sEH Human Enzyme Assay (fluorescence based enzyme in vitro assay)
Type: biochemical
Conditions: recombinant full length human sEH about 1 nM, fluorescence substrate S7 10 uM, pH7.0, 25° C.; read-out: IC50 [nM] for human sEH enzyme inhibition
Excerpt: Preparation of Recombinant sEH Human Enzyme
The DNA for expressing sEH was designed based on a […] sEH cDNA, modified to optimize for expression both in E. coli and insect cells. The designed DNA fragment encodes a protein sequence that is identical to full length human sEH, and the DNA was synthesized in vitro. The DNA was then subcloned into the pET100 vector that will generate a fusion protein with an N-terminal His-tag. The recombinant protein was expressed in E. coli. The sEH enzyme was affinity purified by a Ni^++ column. His-tag was removed by Enter Kinase (EK) digestion. The purified enzyme aliquots were frozen and held at −80° C. for later use.
Fluorescence Based Enzyme In Vitro Assay,
For each assay (100 ul), an aliquot of enzymes (about 1 nM final concentration) was incubated with a fluorescence substrate, S7 (10 uM final concentration), in sEH assay buffer (25 mM HEPES, pH7.0, 0.1 mg/ml BSA) in a 96-well plate. The kinetic reaction reading (Ex330/Em465) was conducted using a plate reader, Spectra max (Molecular Devices) at 25° C.

Compound | IC50 [nM]
CCc1noc(C2CC3CCC(C2)N3C(=O)Nc2ccc(C(F)(F)F)cc2)n1 (stereo not shown) [Example 5] | 2
Cc1noc(C2CC3CCC2N(C(=O)Nc2ccc(C(F)(F)F)cc2)C3)n1 (stereo not shown) [Example 2] | 2
O=C(Nc1ccc(Cl)cc1)N1CC2(c3ccccc3)CCC1C2 (stereo not shown) [Example 10] | 1
CCc1noc(C2CC3CC2N(C(=O)NC2CC2c2ccccc2)C3)n1 (stereo not shown) [Example 17] | 48
Cc1noc(C2(C)CC3CCC2N(C(=O)NC2CC2c2ccccc2)C3)n1 (stereo not shown) [Example 16] | 30
CCOc1noc(C2CC3CCC2N(C(=O)Nc2ccc(C(F)(F)F)cc2)C3)n1 (stereo not shown) [Example 7] | 2
Cc1noc(C2(C)CC3CCC2N(C(=O)Nc2ccc(C(F)(F)F)cc2)C3)n1 (stereo not shown) [Example 3] | 2
CC(c1ccccc1)c1noc(C2CC3CCC2N(C(=O)Nc2ccc(C(F)(F)F)cc2)C3)n1 (stereo not shown) [Example 4] | 8
CCOc1noc(C2CC3CCC2N(C(=O)NC2CC2c2ccccc2)C3)n1 (stereo not shown) [Example 15] | 14
CN(C)c1noc(C2CC3CCC2N(C(=O)Nc2ccc(C(F)(F)F)cc2)C3)n1 (stereo not shown) [Example 6] | 1
Cn1cc(-c2noc(C3(C)CC4CCC3N(C(=O)NC3CC3c3ccccc3)C4)n2)c2ccccc21 (stereo not shown) [Example 20] | 8
O=C(Nc1ccc(C(F)(F)F)cc1)N1C2CCC1C(c1cccnc1)C2 (stereo not shown) [Example 12] | 41
Cn1cc(-c2noc([C@@H]3C[C@H]4CC[C@H]3CN4C(=O)NC3CC3c3ccccc3)n2)c2ccccc21 (stereo partly shown) [Example 19] | 4
CN(C)c1noc(C2CC3CCC2N(C(=O)NC2CC2c2ccccc2)C3)n1 (stereo not shown) [Example 13] | 51
O=C(Nc1ccc(C(F)(F)F)cc1)N1CC2(c3ccccc3)CCC1CC2 [Example 9] | 1
O=C(NC1CC1c1ccccc1)N1CC2CCC1C(c1nc(C3CC3)no1)C2 (stereo not shown) [Example 14] | 18
O=C(Nc1ccc(C(F)(F)F)cc1)N1C2CCC1C(c1cccnc1)C2 (stereo not shown) [Example 11] | 11
Cc1noc(C2CC3CC2N(C(=O)Nc2ccc(C(F)(F)F)cc2)C3)n1 (stereo not shown) [Example 1] | 7
O=C(NC1CC1c1ccccc1)N1CC2CCC1C(c1nc(C(c3ccccc3)c3ccccc3)no1)C2 (stereo not shown) [Example 18] | 6
